Tests used:
Assay in all cases: Test C pre/postemergence
Format in all cases: in vivo
[1] = test system: Surinam grass (Brachiaria decumbens); details: for Plant response rating, Surinam Grass: Preemergence
Procedure, shortened: (§1)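 Percent control is a visual rating (0 none, 100 complete) taken against untreated plants after 12 to 14 days of greenhouse growth. Applications were made preemergence to seeded pots and postemergence to plants at the 1- to 4-leaf stage, in a non-phytotoxic surfactant-containing solvent.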

[2] = test system: cocklebur (Xanthium strumarium); details: for Plant response rating (scale of 0 to 100), Cocklebur / Cocklebur plant response rating: Postemergence; for Cocklebur plant response rating: scale 0 to 100 (0 no effect, 100 complete control); for Plant response rating, Cocklebur: Preemergence
Procedure, shortened: as §1

[3] = test system: common (oilseed) sunflower (Helianthus annuus); details: Preemergence
Procedure, shortened: as §1

[4] = test system: crabgrass (Digitaria sanguinalis); details: for Plant response rating (scale of 0 to 100), Crabgrass / Crabgrass plant response rating: Postemergence; for Crabgrass plant response rating: scale 0 to 100 (0 no effect, 100 complete control); for Plant response rating, Crabgrass: Preemergence
Procedure, shortened: as §1

[5] = test system: giant foxtail (Setaria faberii); details: for Plant response rating (scale of 0 to 100), Foxtail, Giant / Foxtail, Giant plant response rating: Postemergence; for Foxtail, Giant plant response rating: scale 0 to 100 (0 no effect, 100 complete control); for Plant response rating, Foxtail, Giant: Preemergence
Procedure, shortened: as §1

[6] = test system: johnsongrass (Sorghum halepense); details: for Plant response rating, Johnsongrass: Preemergence
Procedure, shortened: as §1

[7] = test system: kochia (Kochia scoparia); details: for Plant response rating (scale of 0 to 100), Kochia / Kochia plant response rating: Postemergence; for Kochia plant response rating: scale 0 to 100 (0 no effect, 100 complete control); for Plant response rating, Kochia: Preemergence
Procedure, shortened: as §1

[8] = test system: morningglory (Ipomoea coccinea); details: for Morningglory plant response rating: scale 0 to 100 (0 no effect, 100 complete control); for Plant response rating, Morningglory: Preemergence
Procedure, shortened: as §1

[9] = test system: pigweed (Amaranthus retroflexus); details: for Plant response rating (scale of 0 to 100), Pigweed / Pigweed plant response rating: Postemergence; for Pigweed plant response rating: scale 0 to 100 (0 no effect, 100 complete control); for Plant response rating, Pigweed: Preemergence
Procedure, shortened: as §1

[10] = test system: velvetleaf (Abutilon theophrasti); details: for Plant response rating (scale of 0 to 100), Velvetleaf / Velvetleaf plant response rating: Postemergence; for Velvetleaf plant response rating: scale 0 to 100 (0 no effect, 100 complete control); for Plant response rating, Velvetleaf: Preemergence
Procedure, shortened: as §1

[11] = test system: woolly cupgrass (Eriochloa villosa); details: for Plant response rating (scale of 0 to 100), Cupgrass, Woolly / Cupgrass, Woolly plant response rating: Postemergence; for Cupgrass, Woolly plant response rating: scale 0 to 100 (0 no effect, 100 complete control); for Plant response rating, Cupgrass, Woolly: Preemergence
Procedure, shortened: as §1

[12] = test system: yellow nutsedge (Cyperus esculentus); details: for Plant response rating (scale of 0 to 100), Nutsedge, Yellow / Nutsedge, Yellow plant response rating: Postemergence; for Nutsedge, Yellow plant response rating: scale 0 to 100 (0 no effect, 100 complete control); for Plant response rating, Nutsedge, Yellow: Preemergence
Procedure, shortened: as §1

[13] = Postemergence, 62 g ai/ha, scale 0 to 100 (0 no effect, 100 complete control)
[14] = 16 g ai/ha, scale 0 to 100, 0 no effect, 100 complete control
[15] = 62 g ai/ha, scale 0 to 100, 0 no effect, 100 complete control
[16] = 31 g ai/ha, scale 0 to 100, 0 no effect, 100 complete control

COC(=O)c1nc(C2CC2)nc(N=CN(C)C)c1Br [Compound 19]
70: Plant response rating, Sunflower [3, 15] | Crabgrass plant response rating ([4]; 62 g ai/ha) | Crabgrass plant response rating ([4]; 125 g ai/ha) | Plant response rating, Pigweed [9, 15]
90: Cocklebur plant response rating ([2]; 125 g ai/ha) | Plant response rating, Sunflower ([3]; 125 g ai/ha, scale 0 to 100) | Plant response rating (scale of 0 to 100), Kochia ([7]; 31 g ai/ha) | Kochia plant response rating ([7]; 62 g ai/ha) | Kochia plant response rating ([7]; 125 g ai/ha) | Plant response rating, Kochia ([7]; 125 g ai/ha, scale 0 to 100) | Plant response rating, Morningglory [8, 15] | Plant response rating, Morningglory ([8]; 125 g ai/ha, scale 0 to 100)
45: Surinam Grass plant response rating [1, 13] | Plant response rating, Pigweed [9, 16]
50: Cocklebur plant response rating ([2]; 62 g ai/ha) | Plant response rating (scale of 0 to 100), Pigweed ([9]; 16 g ai/ha) | Plant response rating (scale of 0 to 100), Pigweed ([9]; 31 g ai/ha) | Velvetleaf plant response rating ([10]; 62 g ai/ha)
30: Plant response rating, Cocklebur [2, 16] | Plant response rating (scale of 0 to 100), Velvetleaf ([10]; 16 g ai/ha)
15: Plant response rating, Cocklebur [2, 14]
10: Plant response rating, Surinam Grass ([1]; 125 g ai/ha, scale 0 to 100) | Plant response rating, Sunflower [3, 14] | Plant response rating, Morningglory [8, 14] | Plant response rating, Morningglory [8, 16]
0: Plant response rating (scale of 0 to 100), Surinam Grass ([1]; Postemergence, 16 g ai/ha) | Plant response rating, Surinam Grass [1, 14] | Plant response rating, Surinam Grass [1, 15] | Plant response rating, Crabgrass [4, 14] | Plant response rating, Crabgrass [4, 16] | Plant response rating, Crabgrass [4, 15] | Plant response rating, Crabgrass ([4]; 125 g ai/ha, scale 0 to 100) | Plant response rating (scale of 0 to 100), Foxtail, Giant ([5]; 16 g ai/ha) | Plant response rating, Foxtail, Giant [5, 14] | Plant response rating, Foxtail, Giant [5, 16] | Plant response rating, Foxtail, Giant [5, 15] | Plant response rating, Foxtail, Giant ([5]; 125 g ai/ha, scale 0 to 100) | Plant response rating (scale of 0 to 100), Johnsongrass ([6]; Postemergence, 16 g ai/ha) | Plant response rating (scale of 0 to 100), Johnsongrass ([6]; Postemergence, 31 g ai/ha) | Johnsongrass plant response rating [6, 13] | Plant response rating, Johnsongrass [6, 14] | Plant response rating, Johnsongrass [6, 16] | Plant response rating (scale of 0 to 100), Cupgrass, Woolly ([11]; 16 g ai/ha) | Plant response rating, Cupgrass, Woolly [11, 14] | Plant response rating, Cupgrass, Woolly [11, 16] | Plant response rating, Cupgrass, Woolly [11, 15] | Plant response rating, Cupgrass, Woolly ([11]; 125 g ai/ha, scale 0 to 100) | Plant response rating (scale of 0 to 100), Nutsedge, Yellow ([12]; 16 g ai/ha) | Plant response rating (scale of 0 to 100), Nutsedge, Yellow ([12]; 31 g ai/ha) | Nutsedge, Yellow plant response rating ([12]; 62 g ai/ha) | Nutsedge, Yellow plant response rating ([12]; 125 g ai/ha) | Plant response rating, Nutsedge, Yellow [12, 14] | Plant response rating, Nutsedge, Yellow [12, 16] | Plant response rating, Nutsedge, Yellow [12, 15] | Plant response rating, Nutsedge, Yellow ([12]; 125 g ai/ha, scale 0 to 100)
55: Foxtail, Giant plant response rating ([5]; 125 g ai/ha) | Plant response rating, Johnsongrass ([6]; 125 g ai/ha, scale 0 to 100) | Plant response rating (scale of 0 to 100), Morningglory ([8]; Postemergence, 31 g ai/ha)
5: Plant response rating (scale of 0 to 100), Foxtail, Giant ([5]; 31 g ai/ha)
35: Plant response rating, Johnsongrass [6, 15] | Plant response rating, Kochia [7, 14] | Plant response rating, Pigweed [9, 14] | Plant response rating, Velvetleaf [10, 16]
25: Plant response rating (scale of 0 to 100), Surinam Grass ([1]; Postemergence, 31 g ai/ha) | Plant response rating (scale of 0 to 100), Cocklebur ([2]; 16 g ai/ha) | Plant response rating (scale of 0 to 100), Cocklebur ([2]; 31 g ai/ha) | Plant response rating, Sunflower [3, 16] | Plant response rating, Velvetleaf [10, 14] | Plant response rating (scale of 0 to 100), Cupgrass, Woolly ([11]; 31 g ai/ha)
40: Plant response rating (scale of 0 to 100), Crabgrass ([4]; 31 g ai/ha) | Foxtail, Giant plant response rating ([5]; 62 g ai/ha) | Plant response rating (scale of 0 to 100), Velvetleaf ([10]; 31 g ai/ha) | Plant response rating, Velvetleaf [10, 15]
85: Plant response rating, Kochia [7, 15] | Morningglory plant response rating ([8]; Postemergence, 125 g ai/ha)
80: Plant response rating, Cocklebur ([2]; 125 g ai/ha, scale 0 to 100) | Plant response rating (scale of 0 to 100), Kochia ([7]; 16 g ai/ha) | Morningglory plant response rating ([8]; Postemergence, 62 g ai/ha)
60: Velvetleaf plant response rating ([10]; 125 g ai/ha)
65: Plant response rating, Cocklebur [2, 15] | Pigweed plant response rating ([9]; 62 g ai/ha) | Pigweed plant response rating ([9]; 125 g ai/ha) | Plant response rating, Velvetleaf ([10]; 125 g ai/ha, scale 0 to 100) | Cupgrass, Woolly plant response rating ([11]; 62 g ai/ha) | Cupgrass, Woolly plant response rating ([11]; 125 g ai/ha)
20: Plant response rating (scale of 0 to 100), Crabgrass ([4]; 16 g ai/ha)
95: Plant response rating, Pigweed ([9]; 125 g ai/ha, scale 0 to 100)

Source: patent publication US8802597B2, “Herbicidal pyrimidines” (E I du Pont de Nemours and Company, priority 2003, dated 2014)
